Here are results for 19 molecules from article PMC8667918, “Synthesis and biological evaluation of halogenated phenoxychalcones and their corresponding pyrazolines as cytotoxic agents in human breast cancer” (Journal of Enzyme Inhibition and Medicinal Chemistry, 2021).

Series [1] concerns MCF-7 breast cancer cell line. The series is described as follows: MTT assay, cytotoxicity against breast cancer cell line MCF-7. To be noted: for IC50: Homo sapiens, MCF7, 48 h, read-out: In vitro cytotoxicity IC50 MCF-7; for Selectivity index: ratio of IC50 on normal cells (MCF-10a) to cancer cells (MCF-7). On the procedure: (§1) Human breast cancer cell line MCF-7 and normal breast cell line MCF-10a were obtained from American type culture collection, MCF-7 cells were cultured using Dulbecco’s Modified Eagle Medium DMEM (Invitrogen/Life Technologies) supplemented with 10% FBS (Hyclone), 10 µg/ml of insulin (Sigma), and 1% penicillin-streptomycin. MCF-10a cell line was cultured using DMEM medium supplemented with 10% FBS, 1% sodium pyruvate, 1% MEM NEAA, 20 ng/ml human epidermal growth factor (HEGF), 10 μg/ml insulin and 0.05 mM hydrocortisone. The cells were incubated at 37 °C in a humidified atmosphere of 5% CO2.
(§2) The anticancer effect of phenoxychalcones and N-acetylpyrazolines on the viability of both tumour and normal cells was evaluated using МТТ assay as a rapid colorimetric assay. It is based on the ability of mitochondrial dehydrogenases of viable cells to reduce yellow tetrazolium salt MTT to blue formazan in quantities proportional to the number of living cells. The cells were incubated with the medium alone or with the tested compounds at concentrations of 100 µM, 25 µM, 6.25 µM, 1.56 µM and 0.39 µM for 48 h. […] Then, 20 μL MTT solution was added to each well and mixed. After 4 h, the supernatants were removed and 100 μL DMSO was added to each well to dissolve the precipitate. The viability of cells was estimated by measuring the absorbance at 570 nm using a Bioline ELIZA plate reader. The cell viability percentage was calculated based on the absorbance ratio between cell culture treated with the compounds and the untreated control multiplied by 100. Selectivity index (SI) was calculated as the ratio of cytotoxicity (IC50) on normal cells (MCF-10a) to cancer cells (MCF-7).
On the technique in general: Tetrazolium dyes change colour on reduction, which living cells bring about.

A short description of series [2]: MTT assay, cytotoxicity against normal breast cell line MCF-10a. The note with it: human, MCF-10a normal breast cells. On the procedure: as §1, §2
For series [3], the system named is MCF-7. The note with it: reported chalcones of Figure 1; cited from earlier work.
In series [4] the test system is leukemia. Set-up: method as in PMID 31927336, PMID 22503741. The note with it: reported chalcone of Figure 1; cited from earlier work.
The test system of series [5] is C6 and Hela cell lines. Also on record: method as in PMID 31927336, PMID 22503741. The note with it: reported chalcone of Figure 1; cited from earlier work.

As to `O=C(C=Cc1ccc(Oc2ccc(Br)cc2)cc1)c1ccc(Cl)cc1` [Compound 2a, 3–(4-(4-Bromophenoxy)phenyl)-1–(4-chlorophenyl)prop-2-en-1-one], the melting point (in general, the temperature of the solid-liquid transition) is 150 to 152 °C. Also, in series [1], the IC50 (usually the midpoint of a concentration-inhibition curve) came to 8.51 ± 0.16 µM and the Selectivity index was determined as 3.92. Besides, in series [2], inhibition was half-maximal at 33.4 ± 1.34 µM (IC50 at 48 h).
The matching figures for `O=C(C=Cc1ccc(Oc2ccc(Br)cc2)cc1)c1ccc(Br)cc1` [Compound 2b, 3–(4-(4-Bromophenoxy)phenyl)-1–(4-bromophenyl)prop-2-en-1-one]: 164 to 166 °C, 13.3 ± 0.53 µM, 1.91 and 25.3 ± 1.17 µM.
The corresponding values for `O=C(C=Cc1ccc(Oc2ccc(Cl)cc2)cc1)c1ccc(Cl)cc1` [Compound 2d, 3–(4-(4-Chlorophenoxy)phenyl)-1–(4-chlorophenyl)prop-2-en-1-one] are 120 to 122 °C, 19.9 ± 0.66 µM, 1.67 and 33.1 ± 1.42 µM.
The matching figures for `O=C(C=Cc1ccc(Oc2ccc(Cl)cc2)cc1)c1ccc(Br)cc1` [Compound 2e, 1–(4-Bromophenyl)-3–(4-(4-chlorophenoxy)phenyl)prop-2-en-1-one]: 143 to 145 °C, 44.2 ± 2.16 µM, 0.50 and 22.1 ± 1.08 µM.
`Cc1ccc(C(=O)C=Cc2ccc(Oc3ccc(Cl)cc3)cc2)cc1` [Compound 2f, 3–(4-(4-Chlorophenoxy)phenyl)-1-(p-tolyl)prop-2-en-1-one] had a melting point of 136 to 138 °C. Besides, in series [1], the IC50 was 1.87 ± 0.02 µM and the Selectivity index was 11.03. The “fold more active than 2e” value in series [1] (MCF-7 IC50 compared with chalcone 2e) is 23.6 fold. Further, the “fold more active than 2d” value in series [1] (MCF-7 IC50 compared with chalcone 2d) was found to be 10.6 fold. In series [2], inhibition was half-maximal at 20.6 ± 0.37 µM (IC50 at 48 h).
`CC(=O)N1N=C(c2ccc(Cl)cc2)CC1c1ccc(Oc2ccc(Br)cc2)cc1` (stereo not drawn) [Compound 3a, 1–(5-(4–(4-Bromophenoxy)phenyl)-3–(4-chlorophenyl)-4,5-dihydro-1H-pyrazol-1-yl) ethanone] gave a melting point of 142 to 144 °C. In addition, in series [1], the IC50 came out at 10.6 ± 0.39 µM and the Selectivity index worked out at 5.29. Further, the IC50 at 48 h in series [2] is 55.8 ± 1.92 µM.
The matching figures for `CC(=O)N1N=C(c2ccc(Br)cc2)CC1c1ccc(Oc2ccc(Br)cc2)cc1` (stereo not drawn) [Compound 3b, 1–(5-(4–(4-Bromophenoxy)phenyl)-3–(4-bromophenyl)-4,5-dihydro-1H-pyrazol-1-yl) ethanone]: 138 to 140 °C, 17.2 ± 0.62 µM, 0.67 and 11.5 ± 0.47 µM.
`CC(=O)N1N=C(c2ccc(C)cc2)CC1c1ccc(Oc2ccc(Br)cc2)cc1` (stereo not drawn) [Compound 3c, 1–(5-(4–(4-Bromophenoxy)phenyl)-3-(p-tolyl)-4,5-dihydro-1H-pyrazol-1-yl)ethanone] returned a melting point of 141 to 143 °C. Besides, in series [1], the IC50 stood at 7.42 ± 0.28 µM and the Selectivity index is on record as 2.63. Besides, the IC50 at 48 h in series [2] came to 19.5 ± 0.69 µM.
`CC(=O)N1N=C(c2ccc(Cl)cc2)CC1c1ccc(Oc2ccc(Cl)cc2)cc1` (stereo not drawn) [Compound 3d, 1–(5-(4–(4-Chlorophenoxy)phenyl)-3–(4-chlorophenyl)-4,5-dihydro-1H-pyrazol-1-yl) ethanone] returned a melting point of 116 to 118 °C. In series [1], the IC50 amounted to 8.51 ± 0.27 µM and the Selectivity index worked out at 5.37. This molecule also had an IC50 at 48 h in series [2] of 45.7 ± 1.36 µM.
The corresponding values for `CC(=O)N1N=C(c2ccc(Br)cc2)CC1c1ccc(Oc2ccc(Cl)cc2)cc1` (stereo not drawn) [Compound 3e, 1–(3-(4-Bromophenyl)-5–(4-(4-chlorophenoxy)phenyl)-4,5-dihydro-1H-pyrazol-1-yl) ethanone] are 117 to 119 °C, 5.02 ± 0.22 µM, 2.02 and 10.1 ± 0.62 µM.
The matching figures for `CC(=O)N1N=C(c2ccc(C)cc2)CC1c1ccc(Oc2ccc(Cl)cc2)cc1` (stereo not drawn) [Compound 3f, 1–(5-(4–(4-Chlorophenoxy)phenyl)-3-(p-tolyl)-4,5-dihydro-1H-pyrazol-1-yl) ethanone]: 118 to 120 °C, 4.77 ± 0.13 µM, 2.55 and 12.2 ± 0.79 µM.
For `COc1ccc(C(=O)/C=C/c2ccc(Cl)cc2)c(Oc2cc(OC)c(OC)c(OC)c2)c1` [III], in series [3], the IC50 was 4.39 ± 0.26 µM.
As to `Cc1ccc(C(=O)/C=C/c2cccc(Cl)c2Oc2c([N+](=O)[O-])cc(C(F)(F)F)cc2[N+](=O)[O-])cc1` [II], in series [3], the IC50 was 0.03 ± 0.002 µM.
Take `O=C(/C=C/c1ccc(Br)cc1)c1c(O)cccc1OCc1ccccc1` [IV]: the activity against leukemia result in series [4] is “Effective against leukemia”.
For the molecule `CCn1cc(/C=C/C(=O)c2ccc(Br)cc2)c(-c2ccc(OC)cc2)n1` [IX], the IC50 in series [3] is 18.7 µM.
Turning to `COc1ccc(/C=C/C(=O)c2ccc(OC)cc2Oc2cc(OC)c(OC)c(OC)c2)cc1` [I], the IC50 in series [3] is 3.44 ± 0.19 µM.
For `O=C(/C=C/c1cc(Br)ccc1O)c1ccc(Br)cc1` [VIII], the 50% inhibitory concentration (IC50) in series [3] is 3.82 ± 0.022 µM.
On to `Nc1ccc(C(=O)/C=C/c2cccc(Cl)c2)cc1` [VII], for which the IC50 in series [3] was 34.2 ± 6.4 µM.
Regarding `O=C(/C=C/c1ccc(Oc2ccc(Cl)cc2)cc1)c1ccc(N2CCOCC2)cc1` [V], in series [5], the “activity against C6 and Hela cell lines” value is “Effective against C6 and Hela cell lines”.
